From PubChem BioAssay (NCI)
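Test compounds were applied to cells in 96-well plates for 48 hours at 5 doses. TGI: concentration producing complete growth inhibition.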

Assays:
Experiment in all cases: inhibition of tumour cell growth, NCI panel, 48 h
786-0 renal = system: 786-0 renal
ACHN renal = system: ACHN renal
COLO 205 colon = system: COLO 205 colon
HOP-92 NSCLC = system: HOP-92 NSCLC
HT29 colon = system: HT29 colon
LOX IMVI melanoma = system: LOX IMVI melanoma
MCF7 breast = system: MCF7 breast
MDA-N = system: MDA-N
SK-MEL-2 melanoma = system: SK-MEL-2 melanoma
SK-MEL-5 melanoma = system: SK-MEL-5 melanoma
UACC-62 melanoma = system: UACC-62 melanoma

SMILES | TGI (786-0 renal) | TGI (ACHN renal) | TGI (COLO 205 colon) | TGI (HOP-92 NSCLC) | TGI (HT29 colon) | TGI (LOX IMVI melanoma) | TGI (MCF7 breast) | TGI (MDA-N) | TGI (SK-MEL-2 melanoma) | TGI (SK-MEL-5 melanoma) | TGI (UACC-62 melanoma)
COc1cc2c3c(n(C)c(=O)c2cc1OC)-c1cc2c(cc1/C3=C\CCCI)OCO2 | > 100 µM | > 85.3 µM | > 100 µM | > 100 µM | > 100 µM | > 100 µM | > 100 µM | > 100 µM | > 100 µM | > 100 µM | > 100 µM
O=C(/C=C/c1cccc(Oc2ccccc2)c1)NCc1ccc(C(=O)NCCc2ccccc2)cc1 | > 100 µM | > 100 µM | > 100 µM | > 100 µM | > 100 µM | > 100 µM | > 100 µM | > 100 µM | > 100 µM | > 100 µM | > 100 µM
O=c1[nH]cc(Cl)c(=O)[nH]1 | > 100 µM | > 100 µM | > 100 µM | > 100 µM | > 100 µM | > 100 µM | > 100 µM | > 100 µM | > 100 µM | > 100 µM | > 100 µM
Clc1cccc(NN=Nc2ccc(-c3nc4ccccc4s3)cc2)c1 | 51.4 µM | > 100 µM | > 100 µM | 76.8 µM | > 100 µM | > 100 µM | > 100 µM | 80.1 µM | 48.1 µM | 74.9 µM | 51.8 µM
Nc1nc(Cl)cc(NC2(CO)CCC2)n1 | > 100 µM | > 100 µM | > 100 µM | > 100 µM | > 100 µM | > 100 µM | > 100 µM | > 100 µM | > 100 µM | > 100 µM | > 100 µM
CCOC(=O)C(NC(=O)c1ccccc1)(N1CCN(c2cc3c(cc2F)c(=O)c(C(=O)O)cn3CC)CC1)C(F)(F)F (stereo unspecified) | > 100 µM | > 100 µM | 31.1 µM | 84.4 µM | > 100 µM | 35.4 µM | 69.2 µM | > 100 µM | > 100 µM | 65.7 µM | > 100 µM
O=C1C(Cl)=C(N(C(=O)c2ccccc2)C(=O)c2ccccc2)C(=O)c2ccccc21 | 34.7 µM | 13.9 µM | 31 µM | 34.8 µM | 69.3 µM | > 100 µM | 24 µM | 25.8 µM | 43.9 µM | 12.4 µM | 19.8 µM
C=C1CC(Cn2ccc(=O)[nH]c2=O)(c2ccc(Cl)cc2)OC1=O (stereo unspecified) | 4.83 µM | 10.4 µM | 3.44 µM | 3.89 µM | 13.4 µM | 5.94 µM | 7.56 µM | 17.1 µM | 22.5 µM | 10.8 µM | 13.4 µM
O=C1CC[C@@]2(O)[C@H]3Cc4ccc(-c5ccccc5)c5c4[C@@]2(CCN3CC2CC2)[C@H]1O5 | 30.3 µM | 42.4 µM | 35 µM | 57.4 µM | 27.8 µM | 32.8 µM | 33.5 µM | 32.9 µM | 33.7 µM | 28.6 µM | 25.2 µM
Cc1cc(=O)n2nc(CCl)sc2n1 | 37 µM | 27.5 µM | 33.5 µM | 28.2 µM | 30.5 µM | 17.1 µM | 28.7 µM | 27.7 µM | 28.7 µM | 23 µM | 46.9 µM
CC(C)=CCc1[nH]c2ccccc2c1C1=C(O)C(=O)C(c2c(CC=C(C)C)[nH]c3ccccc23)=C(O)C1=O | 10.2 µM | 3.95 µM | 3.07 µM | 4.04 µM | 6.34 µM | 4.22 µM | 9.4 µM | 11.5 µM | 3.95 µM | 4.12 µM | 2.94 µM
CCCCCCCCCCCC[C@@H](O)[C@H]1CCC([C@H](O)CCCCC(=O)CCCCCCCC2=C[C@H](C)OC2=O)O1 (stereo partly specified) | > 50 µM | > 50 µM | > 30 µM | > 50 µM | > 50 µM | > 50 µM | > 50 µM | > 50 µM | > 50 µM | > 20.2 µM | > 40.9 µM
Cc1c(N=Nc2ccccc2)c(C)n(C2OC(CO)C(O)C(O)C2O)c(=S)c1C#N (stereo unspecified) | > 100 µM | > 100 µM | > 100 µM | 48.9 µM | > 100 µM | 54.8 µM | > 100 µM | > 100 µM | 90.2 µM | 25 µM | 18.9 µM
CC(=O)Oc1ccc2c(c1)CC[C@@H]1C2[C@@H](O[N+](=O)[O-])C[C@@]2(C)C1CC[C@@H]2O[N+](=O)[O-] (stereo partly specified) | 28.4 µM | 22 µM | 34.2 µM | 23.5 µM | 30.2 µM | 28.9 µM | 22.4 µM | 28.2 µM | 31.5 µM | 22.7 µM | 32.5 µM
CC(C)(C)OC(=O)CN1CCNCCN(CC(=O)OC(C)(C)C)CCNCC1 | > 100 µM | > 100 µM | > 100 µM | > 100 µM | > 100 µM | > 100 µM | > 100 µM | > 100 µM | > 100 µM | > 100 µM | > 100 µM
COc1c(-c2nc3nc(N4CCN(C)CC4)ccc3[nH]2)cc(OC)c2c1nc(COC(C)=O)n2C | > 100 µM | > 100 µM | > 100 µM | > 100 µM | > 100 µM | > 100 µM | > 100 µM | > 100 µM | > 100 µM | > 100 µM | > 100 µM
